pIC50: −log10 of the molar value.
Tests used:
PI3Kb = PI3Kb (Homo sapiens, UniProt P42338); assay: PI3K beta Scintillation Proximity Assay; assay type: biochemical; settings: 40 μM ATP; n=2; read-out: absolute IC50
Protocol: Use the PI3K beta Scintillation Proximity Assay (PI3K beta SPA) to determine the IC50 value against PI3Kb for a compound. This assay assesses the activity PI3K beta in the presence of compound inhibitors by measuring incorporation of γ-P33-ATP into phosphatidylinositol (4,5)bisphosphate (PIP2). Perform the kinase reactions in 40 μL reaction volumes in 96-well half-area flat bottom white with clear bottom polystyrene plates. Add PI3K beta to start the reaction. Final reaction conditions are 43.75 mM 2,2-bis(hydroxymethyl)-2,2′,2″-nitrilotriethanol (Bis-Tris) pH 7.0, 87.5 mM sodium chloride (NaCl), 1.76 mM polyethylene glycol octylphenyl ether (Triton™ X-100), 40 μM adenosine triphosphate (ATP), 1.0 mM magnesium chloride (MgCl2) and 1 μCi per well γ-P33-adenosine triphosphate (γ-P33-ATP), 6.0 nM PI3K beta human recombinant enzyme, 0.2 mM palmitoyl-oleoyl phosphatidylserine (POPS), 0.04 mM phosphatidylinositol (4,5)bisphosphate (PIP2), 4% DMSO and serial dilutions of compound (diluted 1:3 from 20,000 to 1 nM). […] Centrifuge plates for 30 min at 1000 revolutions per minute (RPM) and count radioactivity with a Wallac Microbeta Trilux normalized for P33. Derive the IC50 value for the compound by using percent inhibition data calculated using the reaction data relative to on-plate controls (active enzyme versus 62.5 millimolar EDTA-inhibited enzyme controls). […]

H1975 = assay: Cell proliferation assay (CellTiter-Glo), H1975; assay type: cell-based; settings: Homo sapiens, NCI-H1975, 72 h
Protocol: Plate cells in a 96-well plate at 2000 cells/well in 100 μL of cell specific medium (for U87MG use DMEM, 10% FBS, 25 mM 4-(2-hydroxyethyl)-1-piperazineethanesulfonic acid (HEPES), 1.0 mM sodium pyruvate, and 0.1 mM Non Essential Amino Acids (ATCC Cat.#30-2002); for HT1080 use Eagle's MEM, 10% FBS (ATCC Cat.#30-2003); for H1975, A2780, SJSA-1 and 786-O use RPMI 1640, 10% FBS (ATCC Cat.#30-2001); for A204 use McCoy's 5A, 10% FBS (ATCC Cat.#30-2007) except in column 1 use medium only as the blank control. Incubate the plates overnight at 37° C. and 5% CO2. On the next day, prepare compound stocks at 1 mM in DMSO and serially dilute in DMSO in a 96-well round bottom polypropylene plate. Assay compounds at 10 concentrations in duplicate, 4 compounds per plate.
Transfer 4 μL of the DMSO serial dilutions to a 96 well plate and add 196 μL of culture medium to create a 10× stock for dosing. Gently transfer 11 μL of each dosing stock to the corresponding well of the cell plate resulting in a 0.2% DMSO concentration and a 111 μL final volume. […]
Prepared the CellTiter-Glo reagent (Promega, Cat: G7571) and add 100 µL to each well after the incubation is complete, homogenize the cells by mixing on an orbital shaker for 2 min and then incubate at RT for 10 min to allow the luminescent signal to stabilize. Record the luminescent raw data with a Wallac Victor V plate reader. […]

[1] = test system: BXF 1228 human tumor xenograft cells; assay: Oncotest tumor clonogenic assay, BXF 1228; assay type: cell-based; settings: colony formation, Bladder BXF 1228, transitional cell carcinoma, wd, read-out: Absolute IC50
[2] = test system: LXFA 1584 human tumor xenograft cells; assay: Oncotest tumor clonogenic assay, LXFA 1584; assay type: cell-based; settings: colony formation, NSCLC LXFA 1584, adeno carcinoma, pd, read-out: Absolute IC50
[3] = test system: MAXF 583 human tumor xenograft cells; assay: Oncotest tumor clonogenic assay, MAXF 583; assay type: cell-based; settings: colony formation, Mammary MAXF 583, ductual adeno carcinoma, md, read-out: Absolute IC50

PI3Kb, sequence (P42338 whole entry): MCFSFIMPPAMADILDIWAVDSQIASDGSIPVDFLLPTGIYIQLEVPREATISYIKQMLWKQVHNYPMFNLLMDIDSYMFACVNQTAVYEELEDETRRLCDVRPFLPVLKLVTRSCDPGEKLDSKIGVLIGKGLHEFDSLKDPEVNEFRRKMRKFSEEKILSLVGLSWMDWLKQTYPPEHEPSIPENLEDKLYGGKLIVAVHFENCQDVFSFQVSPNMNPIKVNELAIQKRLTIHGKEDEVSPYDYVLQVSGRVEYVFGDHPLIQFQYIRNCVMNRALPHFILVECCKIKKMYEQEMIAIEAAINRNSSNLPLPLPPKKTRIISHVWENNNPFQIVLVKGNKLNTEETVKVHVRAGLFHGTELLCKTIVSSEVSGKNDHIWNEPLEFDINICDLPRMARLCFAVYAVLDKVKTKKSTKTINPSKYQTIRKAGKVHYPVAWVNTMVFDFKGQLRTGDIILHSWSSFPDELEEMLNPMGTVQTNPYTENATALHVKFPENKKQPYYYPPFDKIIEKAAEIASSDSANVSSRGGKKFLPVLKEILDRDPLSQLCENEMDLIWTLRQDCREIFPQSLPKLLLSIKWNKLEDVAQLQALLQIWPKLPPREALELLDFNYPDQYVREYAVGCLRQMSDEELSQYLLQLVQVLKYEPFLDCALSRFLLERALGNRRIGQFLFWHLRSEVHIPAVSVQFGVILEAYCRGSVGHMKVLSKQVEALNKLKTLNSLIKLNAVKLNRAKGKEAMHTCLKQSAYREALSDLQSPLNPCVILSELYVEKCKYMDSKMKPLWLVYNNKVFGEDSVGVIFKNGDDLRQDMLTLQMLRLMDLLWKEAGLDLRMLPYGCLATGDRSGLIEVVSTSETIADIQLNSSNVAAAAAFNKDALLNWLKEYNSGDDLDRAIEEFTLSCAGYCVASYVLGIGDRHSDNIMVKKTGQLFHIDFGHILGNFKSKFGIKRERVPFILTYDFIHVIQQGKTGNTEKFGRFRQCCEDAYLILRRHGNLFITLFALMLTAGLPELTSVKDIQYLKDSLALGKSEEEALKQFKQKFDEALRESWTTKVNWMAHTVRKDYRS
PI3Kb, sequence (P27986 whole entry partner): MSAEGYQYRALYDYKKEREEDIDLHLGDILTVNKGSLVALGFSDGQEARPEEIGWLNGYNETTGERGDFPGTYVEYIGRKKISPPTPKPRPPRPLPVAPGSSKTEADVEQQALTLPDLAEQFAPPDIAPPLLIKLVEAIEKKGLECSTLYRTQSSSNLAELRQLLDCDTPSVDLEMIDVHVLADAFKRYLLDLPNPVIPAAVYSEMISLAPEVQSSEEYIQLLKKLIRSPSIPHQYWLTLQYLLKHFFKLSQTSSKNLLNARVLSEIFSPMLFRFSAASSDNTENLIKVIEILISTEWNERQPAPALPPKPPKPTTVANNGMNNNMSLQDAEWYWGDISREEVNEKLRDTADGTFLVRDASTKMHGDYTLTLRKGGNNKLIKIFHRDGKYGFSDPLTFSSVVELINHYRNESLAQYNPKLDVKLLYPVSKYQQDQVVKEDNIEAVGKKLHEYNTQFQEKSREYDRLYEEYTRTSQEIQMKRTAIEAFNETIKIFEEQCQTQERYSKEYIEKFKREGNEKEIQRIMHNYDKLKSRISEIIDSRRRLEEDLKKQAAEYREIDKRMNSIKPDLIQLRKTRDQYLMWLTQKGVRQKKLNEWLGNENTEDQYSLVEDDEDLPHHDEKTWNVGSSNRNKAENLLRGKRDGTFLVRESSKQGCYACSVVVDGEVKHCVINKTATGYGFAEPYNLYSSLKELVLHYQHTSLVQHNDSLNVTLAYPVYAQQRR

Structure (SMILES): CO[C@@H](C)Cn1c(=O)n(C)c2cnc3ccc(-c4cncc(C(C)(C)O)c4)cc3c21 [Example 1, 8-[5-(1-Hydroxy-1-methylethyl)pyridin-3-yl]-1-[(2S)-2-methoxypropyl]-3-methyl-1,3-dihydro-2H-imidazo[4,5-c]quinolin-2-one]
- pIC50 (PI3Kb): 7.11
- pIC50 (H1975): 6.99
- pIC50 [1]: 7.51
- pIC50 [2]: 7.07
- pIC50 [3]: 7.06

Reference: patent US8658668B2, “PI3 kinase/mTOR dual inhibitor” (Eli Lilly and Company, priority 2011, dated 2014)
